Experimental findings from patent US11806342B2, “Diiodohydroxyquinoline for the treatment of clostridium difficile infection” (Purdue Research Foundation, priority 2019, dated 2023) are described below.

Counter-ions that a name gives are not always drawn. Like-named read-outs stand apart in the source and are kept apart here.

One test relates to C. difficile ATCC 43255. The test can be described thus: Initial screening of antiparasitic drugs, broth microdilution MIC. In kind it is cell-based, Clostridium difficile. As for the experimental part: (§1) C. difficile strains were grown anaerobically on brain heart infusion supplemented (BHIS) agar plates at 37° C. for 48 hours. Afterwards, a bacterial solution equivalent to 0.5 McFarland standard was prepared and diluted in (BHIS) broth to achieve a bacterial concentration of about 5×10^5 CFU/mL. Drugs were added and serially diluted along the plates. Plates were then, incubated anaerobically at 37° C. for 48 hours. MICs reported in Table (1) are the minimum concentrations of the drugs that could completely suppress the visual growth of bacteria.

In test [1] the test system is C. difficile ATCC BAA-1870. The test is described as above. In kind it is cell-based, Clostridium difficile. As for the experimental part:
as §1

[2] abbreviates: Clostridioides difficile, ATCC43255.
The mark [3] stands for this setting: Clostridioides difficile, ATCC43255, initial screening, C. difficile ATCC 43255, read-out: MIC.
Setting [4] is: Clostridioides difficile, initial screening, C. difficile ATCC BAA 1870, read-out: MIC.

One may read the MIC as the lowest concentration found to suppress growth. In the case of `CCC[S+]([O-])c1ccc2[nH]c(NC(=O)OC)nc2c1` (stereo not drawn) [Ricobendazole, ricobendazole], the MIC (against C. difficile ATCC 43255 (setting [2]); in test [1] (Clostridioides difficile)) was above 128 µg/mL throughout.
For the compound `c1ccc2[nH]c(-c3cscn3)nc2c1` [Thiabendazole, thiabendazole], the minimal inhibitory concentration (MIC) (in the test with C. difficile ATCC 43255 (setting [3]); in test [1] (setting [4])) was above 128 µg/mL each time.
Turning to `CC(C)OC(=O)Nc1ccc2nc(-c3cscn3)[nH]c2c1` [Cambendazole, cambendazole], the MIC against C. difficile ATCC 43255 (initial screening, C. difficile ATCC 43255) is above 128 µg/mL; in test [1] (initial screening, C. difficile ATCC BAA 1870) it was above 128 µg/mL.
With `CCc1nc(N)nc(N)c1-c1ccc(Cl)cc1` [Pyrimethamine, pyrimethamine], the minimum inhibitory concentration (MIC) (with C. difficile ATCC 43255 (setting [3]); in test [1] (setting [4])) was above 128 µg/mL in each case.
Regarding `O=C(C1CCCCC1)N1CC(=O)N2CCc3ccccc3C2C1` (stereo not drawn) [Praziquantel, praziquantel], the MIC (in the test on C. difficile ATCC 43255 (setting [3]); in test [1] (setting [4])) was above 128 µg/mL each time.
For the compound `CCCSc1ccc2nc(NC(=O)OC)[nH]c2c1` [Albendazole, albendazole], the MIC (against C. difficile ATCC 43255 (setting [2]); in test [1] (Clostridioides difficile)) was above 128 µg/mL in each case.
For the compound `NC[C@@H]1O[C@H](O[C@H]2[C@@H](O)[C@H](O[C@@H]3[C@@H](O)[C@H](N)C[C@H](N)[C@H]3O[C@H]3O[C@H](CO)[C@@H](O)[C@H](O)[C@H]3N)O[C@@H]2CO)[C@H](N)[C@@H](O)[C@@H]1O` [Paromomycin, paromomycin sulfate], the minimal inhibitory concentration (MIC) (in the test on C. difficile ATCC 43255 (setting [3]); in test [1] (setting [4])) was above 128 µg/mL in each case.
On to `CN1CCCN=C1/C=C/c1cccs1` [Pyrantel Pamoate, pyrantel pamoate], for which the minimal inhibitory concentration (MIC) (in the test with C. difficile ATCC 43255 (setting [3]); in test [1] (setting [4])) was above 128 µg/mL throughout.
For the compound `COC(=O)Nc1nc2ccc(C(=O)c3ccccc3)cc2[nH]1` [Mebendazole, mebendazole], the MIC (in the test on C. difficile ATCC 43255 (setting [3]); in test [1] (setting [4])) was above 128 µg/mL throughout.
